Columns and labels:
[1] = test system: persons suffering from Chronic Fatigue Syndrome; assay: Double-blind cross-over trial in Chronic Fatigue Syndrome: patient-completed visual analogue scales; assay type: in vivo, human; set-up: Sleep Disturbance visual analogue scale, mean / Fatigue visual analogue scale, mean / Myalgia visual analogue scale, mean / Work Capacity/Satisfaction visual analogue scale, mean / Memory visual analogue scale, mean / Dizziness visual analogue scale, mean / Sleep visual analogue scale, mean / Work visual analogue scale, mean: scale not given here
Source text: (§1) 20 persons suffering from Chronic Fatigue Syndrome fulfilling the criteria described in example 4 or 5.
(§2) Each patient received treatment for a minimum of 8 weeks. The first 2 weeks incorporated an escalating schedule to stabilise the patient on an appropriate dose. The trial was running for eight weeks.
(§3) 11 of the persons were randomly allocated to galanthamine treatment, and the remaining 9 to placebo treatment. The protocol for the trial made provisions for the clinician to opt after two weeks of treatment for transfer to the alternative treatment.
(§4) The data available for the evaluation covered groups of patient-completed visual analogue scales to assess sleep disturbance, fatigue, myalgia, work capacity/satisfaction, and dizziness, together with time per response on a visual search task.
In order to assess any underlying, overall performance difference between the galanthamine and placebo treated patients, the median (the statistic which differentiates the upper and lower 50% of scores) of the changes across all scales, was computed for the placebo treated patients.

[2] = test system: persons suffering from Chronic Fatigue Syndrome; assay: Double-blind cross-over trial in Chronic Fatigue Syndrome: clinician's transfer to alternative treatment; assay type: in vivo, human; conditions: after two weeks of treatment; 9/9 on placebo; exact p=0.00006
Source text: as §1, §2, §3

[3] = test system: persons suffering from Chronic Fatigue Syndrome; assay: Double-blind cross-over trial in Chronic Fatigue Syndrome: visual search task; assay type: in vivo, human
Source text: as §1, §2, §3, §4

[4] = test system: acetylcholinesterase in the erythrocytes; conditions: within 2 minutes after 10 mg i.v., healthy volunteer; cited from earlier work
[5] = Side effects in treated patients; assay type: in vivo, human
Procedure: A complete elimination of metabolites and galanthamine takes place in 72 hours. […] The common side effects, other than the ones related to cholinergic crisis, are either nausea or vomiting, and a slight headache. However, these side effects are rare, especially when care is taken to start medication in low doses such as mentioned above.
Although galanthamine must be considered as having a high degree of safety, there have been certain side effects in a few of the patients treated. These have been slight nausea in about 30% of the cases (the nausea, however, disappearing after about one week of treatment), vomiting and dizziness in 5-10% of the patients (also disappearing after about one week of treatment in most cases), and more severe side effects in 4-6% of the patients. These more severe side effects must be considered acceptable in view of the effect of the drug; however, in patients who are suspected of developing arrhythmia, it should be considered to administer, e.g., atropine in combination with the treatment according to the invention.

[6] = cited from earlier work
[7] = test system: acetylcholinesterase as opposed to butyrylcholinesterase; conditions: cited from earlier work
[8] = test system: butyrylcholinesterase in plasma; conditions: after 10 mg i.v., healthy volunteer; cited from earlier work
[9] = test system: auditory evoked potentials in the brain stem; assay: Auditory brain stem response; assay type: in vivo, human
Procedure: The auditory brain stem response test is based on the observation that manio-depressive patients are hypersensitive to cholinergic influences, one manifestation hereof being hypersensitivity to auditory signals as assessed by the increase of amplitude of auditory evoked potentials in the nuclei of the auditory system in the brain stem, i.e. on the "brain side" of the blood brain barrier. […] See also example 3.
Electrical potentials caused by click-stimulation in the ears are measured with electrodes positioned outside on the head of the examined parson. In the configuration of the potentials are components from the brain stem and the brain.
A patient suffering from bipolar manio-depression in the depressive stats and a healthy person, respectively.
Tablet containing 10 mg galanthamine

[10] = assay type: physicochemical; conditions: room temperature
Procedure: Galanthamine and its acid addition salts form crystals. […] If necessary, pharmaceutically-acceptable suspension aids may be employed. Typically, such a suspension will be employed at a concentration of 0.1-50 mg/ml, such as 1-50 mg/ml, more commonly 5-40 mg/ml, for example, 5-30 mg/ml or 10-40 mg/ml, such as 10-30 mg/ml, especially 20-30 mg/ml of galanthamine. As mentioned above, typical dosage rates when administering galanthamine by injection are the range 0.01-20 mg per day depending upon the patient. […] In other cases, dosages as low as 5 mg and as high as 200 mg per day may be appropriate for persons in this body weight range.

[11] = test system: persons suffering from Chronic Fatigue Syndrome; assay: Double-blind cross-over trial in Chronic Fatigue Syndrome: Cognitive Failures Questionnaire; assay type: in vivo, human
Source text: as §1, §2
11 of the persons were randomly allocated to galanthamine treatment, and the remaining 9 to placebo treatment. The protocol for the trial made provisions for the clinician to opt after two weeks of treatment for transfer to the alternative treatment. […]

[12] = use as anticurare agent in anesthesiology in Eastern Block countries since around 1958; cited from earlier work
[13] = all galanthamine treated patients, 1 Week, N = 19
[14] = all galanthamine treated patients, 2 Weeks, N = 19
[15] = all galanthamine treated patients, 4 Weeks, N = 18
[16] = all galanthamine treated patients, 8 Weeks, N = 17
[17] = all galanthamine treated patients, Baseline, N = 19
[18] = randomly allocated to galanthamine (N=11), After 1 Week
[19] = randomly allocated to galanthamine (N=11), After 2 Weeks
[20] = randomly allocated to galanthamine (N=11), Baseline
[21] = 2 hours after 10 mg tablet, treated compared to untreated

In the case of COc1ccc2c3c1O[C@H]1C[C@@H](O)C=C[C@@]31CCN(C)C2 [galanthamine], the “Dizziness visual analogue scale, mean” value [1, 13] is reported as 8.96, the “Fatigue visual analogue scale, mean” value [1, 13] is reported as 26.63 and the “Memory visual analogue scale, mean” value [1, 13] is reported as 5.41. For the same compound, the “Myalgia visual analogue scale, mean” value [1, 13] was 14.25, the “Sleep visual analogue scale, mean” value [1, 13] was 17.26 and the “Work visual analogue scale, mean” value [1, 13] was 10.22. For the same compound, the “Dizziness visual analogue scale, mean” value [1, 14] was 6.94, the “Fatigue visual analogue scale, mean” value [1, 14] was 20.64 and the “Memory visual analogue scale, mean” value [1, 14] was 4.79. For the same compound, the “Myalgia visual analogue scale, mean” value [1, 14] was 11.24, the “Sleep visual analogue scale, mean” value [1, 14] was 15.51 and the “Work visual analogue scale, mean” value [1, 14] was 8.21. For the same compound, the “Dizziness visual analogue scale, mean” value [1, 15] was 6.30, the “Fatigue visual analogue scale, mean” value [1, 15] was 17.42 and the “Memory visual analogue scale, mean” value [1, 15] was 4.33. For the same compound, the “Myalgia visual analogue scale, mean” value [1, 15] was 12.01, the “Sleep visual analogue scale, mean” value [1, 15] was 11.89 and the “Work visual analogue scale, mean” value [1, 15] was 7.40. The “Dizziness visual analogue scale, mean” value [1, 16] was 4.77, the “Fatigue visual analogue scale, mean” value [1, 16] was 17.81 and the “Memory visual analogue scale, mean” value [1, 16] was 4.50. The “Myalgia visual analogue scale, mean” value [1, 16] was 10.51, the “Sleep visual analogue scale, mean” value [1, 16] was 10.88 and the “Work visual analogue scale, mean” value [1, 16] was 7.34. For the same compound, the “Dizziness visual analogue scale, mean” value [1, 17] was 8.39, the “Fatigue visual analogue scale, mean” value [1, 17] was 28.00 and the “Memory visual analogue scale, mean” value [1, 17] was 5.10. For the same compound, the “Myalgia visual analogue scale, mean” value [1, 17] was 16.32, the “Sleep visual analogue scale, mean” value [1, 17] was 19.45 and the “Work visual analogue scale, mean” value [1, 17] was 9.21. The “galanthamine treated patients changes on the analogue scales that fall above the placebo median” value ([1]; first two weeks of treatment, across all scales, exact p=0.033) was 68.18%, the “Dizziness visual analogue scale, mean” value [1, 18] was 9.00 and the “Fatigue visual analogue scale, mean” value [1, 18] was 29.76. The “Memory visual analogue scale, mean” value [1, 18] was 5.89, the “Myalgia visual analogue scale, mean” value [1, 18] was 15.95 and the “Sleep Disturbance visual analogue scale, mean” value [1, 18] was 17.90. For the same compound, the “Work Capacity/Satisfaction visual analogue scale, mean” value [1, 18] was 11.61, the “Dizziness visual analogue scale, mean” value [1, 19] was 8.79 and the “Fatigue visual analogue scale, mean” value [1, 19] was 25.21. For the same compound, the “Memory visual analogue scale, mean” value [1, 19] was 5.62, the “Myalgia visual analogue scale, mean” value [1, 19] was 13.58 and the “Sleep Disturbance visual analogue scale, mean” value [1, 19] was 18.42. The “Work Capacity/Satisfaction visual analogue scale, mean” value [1, 19] was 9.64, the “Dizziness visual analogue scale, mean” value [1, 20] was 9.05 and the “Fatigue visual analogue scale, mean” value [1, 20] was 29.41. The “Memory visual analogue scale, mean” value [1, 20] was 5.31, the “Myalgia visual analogue scale, mean” value [1, 20] was 17.58 and the “Sleep Disturbance visual analogue scale, mean” value [1, 20] was 20.78. For the same compound, the “Work Capacity/Satisfaction visual analogue scale, mean” value [1, 20] was 9.43, the “patients transferred by the clinician to the alternative treatment (failed to benefit)” value [2] was 1/11 and the “average time per response on a visual search task, mean (standard error)” value (“average time per response … (standard error)” below) ([3]; 336 h) was 5.51 (0.43). For the same compound, the “average time per response … (standard error)” value [3, 13] was 6.24 (0.40), the “average time per response … (standard error)” value [3, 15] was 5.83 (0.40) and the “average time per response … (standard error)” value [3, 16] was 5.25 (0.31). For the same compound, the “average time per response … (standard error)” value [3, 17] was 6.79 (0.36), the “inhibition of acetylcholinesterase in the erythrocytes” value [4] was 65% and the “slight nausea, share of cases” value ([5]; disappearing after about one week of treatment) was “about 30%”. For the same compound, the “vomiting and dizziness, share of patients” value ([5]; disappearing after about one week of treatment in most cases) was 5-10%, the “more severe side effects, share of patients” value ([5]; human, in vivo) was 4-6% and the “time to complete elimination of metabolites and galanthamine” value ([6]; in vivo) was 72 h. For the same compound, the “duration of an effective concentration” value ([6]; warranted by elimination half life, probably at least 6 hours) was “at least 4 hours”, the “selectivity for acetylcholinesterase as opposed to butyrylcholinesterase” value ([7]; in vitro method by Thomsen et al.) was “about 50 fold” and the “in vitro selectivity for acetylcholinesterase opposed the effect on butyrylcholinesterase” value ([7]; ratio, as reported by Thomsen, Life Sciences 46) was 50 to 1. The “inhibition of butyrylcholinesterase in plasma” value [8] was “no inhibition”, the “amplitude of auditory brain stem response, depressive patient” value [9, 21] was “dramatically increase of the amplitude” and the “auditory brain stem response potentials, healthy person” value [9, 21] was “potentials do not change”. For the same compound, the “ability to cross the blood-brain barrier” value ([9]; concluded from change of potentials in the depressed person) was “must be able to cross the blood-brain barrier”, the solubility in water [10] was “only sparingly soluble” and the “Cognitive Failures Questionnaire, mean (standard error)” value ([11]; 672 h) was 40.94 (3.87). For the same compound, the “Cognitive Failures Questionnaire, mean (standard error)” value [11, 16] was 38.47 (3.71), the “Cognitive Failures Questionnaire, mean (standard error)” value [11, 17] was 47.74 (3.56) and the “liver toxicity or serious side effects” value [12] was “without any reported case of liver toxicity or serious side effects”.
